Reference: PubChem BioAssay (NCI)
“And” between values parts separate entries of the source, which are not always exact repeats. Equal values may be shown once.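 Dose response: 5 concentrations. Exposure: 48 h. Format: 96-well plates. Endpoint: linear interpolation; highest concentration if not reached. Here, GI50 denotes the concentration required for 50% inhibition of growth. TGI: total growth inhibition.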

Tests used:
Assay in all cases: DTP human tumour cell line panel, 48 h
[1] = tested on: A498 renal
[2] = tested on: CAKI-1 renal
[3] = tested on: HCT-15 colon
[4] = tested on: HOP-92 NSCLC
[5] = tested on: KM12 colon
[6] = tested on: NCI-H226 lung
[7] = tested on: OVCAR-3 ovarian
[8] = tested on: OVCAR-4 ovarian
[9] = tested on: SK-MEL-28 melanoma
[10] = tested on: HL-60(TB) leukemia

Row | SMILES | GI50 [1] [nM] | TGI [1] | GI50 [2] [nM] | TGI [2] | GI50 [3] [nM] | TGI [3] | GI50 [4] [nM] | TGI [4] | GI50 [5] | TGI [5] | GI50 [6] [nM] | TGI [6] | GI50 [7] [nM] | TGI [7] [nM] | GI50 [8] [nM] | TGI [8] | GI50 [9] [nM] | TGI [9] | TGI [10] | GI50 [10] [nM]
1 | O=C(CCN1CCCC1)Nc1ccc2c(NCCCCc3ccccc3)c3ccccc3nc2c1 | 1430 | 2820 nM | 9490 | 22300 nM | 1620 | 3100 nM | 1060 | 2320 nM | 1330 nM | 2740 nM | 1150 | 2490 nM | 1250 | 2570 | 1120 | 2520 nM | 1800 | 3240 nM |  | 
2 | Cc1c2cc[n+](C)cc2c(C)c2c1[nH]c1ccc(O)cc12 |  | 99400 nM |  | > 100000 nM |  | > 100000 nM |  | 52400 nM |  | > 86900 nM |  | 16600 nM |  | > 89300 |  | > 100000 nM |  | 66000 nM | > 87900 nM | 
3 | CC(=O)O[C@H]1C(=O)[C@]2(C)[C@@H](OC(=O)OCC(O)CO)C[C@H]3OC[C@@]3(OC(C)=O)[C@H]2[C@H](OC(=O)c2ccccc2)[C@]2(O)C[C@H](OC(=O)[C@H](O)[C@@H](NC(=O)c3ccccc3)c3ccccc3)C(C)=C1C2(C)C (some centres undefined) |  |  |  | > 68800 nM |  | 10900 nM |  | > 85300 nM |  |  |  |  |  | < 10 |  | > 83900 nM |  | 39100 nM |  | 
4 | O=c1c(-c2ccccc2)c[nH]c2cc([N+](=O)[O-])c(/C(Cl)=C/c3ccccc3)cc12 |  | 35400 nM |  | 87700 nM |  | > 47100 nM |  | 10600 nM |  | 38600 nM |  | 34000 nM |  | 8720 |  | 8640 nM |  | > 55100 nM | 31600 nM | 
5 | COc1cc2c(cc1-c1c(C)noc1C)ncc1nc(C3CCCCC3)n(C3CCC(OC(F)F)CC3)c12 (centres undefined) |  |  | 1030 | > 100000 nM |  |  | 1530 | 4620 nM | 3430 nM | > 100000 nM |  |  |  |  | 2170 | > 100000 nM | 1670 | > 100000 nM | 3970 nM | 1260
6 | CCP(=O)(CC)C(Cl)(Cl)C(=O)NC |  |  |  | > 100000 nM |  | > 100000 nM |  | > 100000 nM |  |  |  | > 100000 nM |  | > 100000 |  | > 100000 nM |  | > 100000 nM | > 100000 nM | 
7 | Cc1c2cc[n+](C)cc2c(COC2OC(CO)C(O)C2O)c2c3ccccc3n(C)c12 (centres undefined) |  | > 100000 nM |  | > 100000 nM |  | > 100000 nM |  | > 100000 nM |  | > 100000 nM |  | > 94100 nM |  | > 100000 |  | > 100000 nM |  | > 100000 nM | > 100000 nM | 
8 | CC(C)(C)CC(C)(C)Cc1ccc(OCCOCC[N+](C)(C)Cc2ccccc2)cc1 | 2080 | 9380 nM | 3470 | 13800 nM | 14400 | 33500 nM | 1230 | 2560 nM |  |  | 1790 | 6720 nM | 1340 | 3090 | 681 | 3940 nM | 1560 | 3080 nM | 1930 nM | 365
9 | CC(=O)OC1CC2(O)C(CCC3(C)C(c4ccc(=O)oc4)CCC32O)C2(C)CCC(O)C=C12 (centres undefined) |  | 310 nM and 176 nM | 15 | 124 nM and 42.5 nM | 37.5 | 209 nM and 147 nM | 37.5 | 374 nM and 86.9 nM | 33 nM and 81.4 nM | 213 nM and 676 nM | 80.8 | 184 nM and 183 nM |  | 22.9 | 37.5 | 68.6 nM and 49.5 nM |  | 289 nM and 171 nM | 14.4 nM and 71 nM | 37.5
